Consider 8 compounds from patent US12569502B2, “Use of bile acids and derivatives thereof in preparation of GPR39 agonist” (PEKING UNIVERSITY, priority 2019, dated 2026).

What all share (format): cell-based
In one test the test system is HEK293T cells. Description: FLIPR calcium imaging on HEK293T cells not expressing GPR39. The conditions noted are these: 293T cells not expressing GPR39. The procedure: (§1) Bile acids and derivatives thereof as listed in Table 1 below were dissolved in dimethyl sulfoxide (DMSO, Sigma Co.) solvent to formulate a stock solution of 50 mM, which was stored at −20° C. During calcium imaging with FLIPR, the drug was diluted with the above 4K solution into a working concentration of 400 μM, and packaged into another 96-well plate. The drug solution and the cell samples in Example 2.2 were placed into the designated position of the FLIPR instrument (MolecularDevices Co.) respectively. The instrument parameters were set so that 50 μL of the drug solution may be added into the culture wells within 2 s. The fluorescence recording result within the first 30 seconds was used as the baseline value. The FLIPR robot arm was programmed to automatically add bile acids and derivatives thereof into the cell sample culture wells at the 31st second. 1% of DMSO solvent was used as the blank control.
The results of FLIPR calcium imaging experiment of the bile acids and derivatives thereof are shown in FIG. 1, wherein the horizontal coordinate represents the time, and the vertical coordinate represents the relative fluorescence intensity.

Test [1] has as its target T1, GPR39 receptors on m39-20 cell lines (Mus musculus, UniProt Q5U431, T447P).
T1 construct: P2A-mCherry (C); expressed in transfected cells
T1 sequence (Q5U431 1-456 T447P): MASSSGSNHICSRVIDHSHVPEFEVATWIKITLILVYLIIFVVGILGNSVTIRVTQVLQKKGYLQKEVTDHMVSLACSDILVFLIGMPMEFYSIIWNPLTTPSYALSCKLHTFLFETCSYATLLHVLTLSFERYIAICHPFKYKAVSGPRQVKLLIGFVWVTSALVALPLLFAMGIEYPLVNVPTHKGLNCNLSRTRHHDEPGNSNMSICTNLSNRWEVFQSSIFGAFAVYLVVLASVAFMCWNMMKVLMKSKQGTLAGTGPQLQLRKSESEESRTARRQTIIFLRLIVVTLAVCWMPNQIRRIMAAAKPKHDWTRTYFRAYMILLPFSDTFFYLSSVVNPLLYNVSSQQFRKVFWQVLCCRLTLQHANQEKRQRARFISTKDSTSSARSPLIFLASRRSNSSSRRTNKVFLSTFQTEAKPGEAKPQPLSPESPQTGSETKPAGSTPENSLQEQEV
Briefly: FLIPR calcium imaging on m39-20 cell lines stably expressing murine-derived GPR39. The conditions noted are these: for Bile acid + 4 μM zinc ions Efficacy / Only bile acid Efficacy: activation efficacy; for intracellular calcium signals in m39-20 cell lines: FIG. 1; for intracellular calcium signaling response in m39-20 cells: absence of zinc ions; for change of activation efficacy after the addition of zinc ions: Table 1, FIG. 2; for activation capacity on GPR39 receptors among the bile acids: dose curves.
Excerpt: Intracellular calcium imaging is a routine technique to study cell functions, the basic principle of which is to detect the concentration of the calcium ion in tissues or cells using a calcium indicator, thereby reflecting certain reactions in the tissues or cells. In the present application, the intracellular calcium released from a cell line that stably or transiently expresses GPR39 is detected using Fluo8-AM, a calcium fluorescent indicator, so as to determine the activation of the GPR39 receptor by the bile acid and derivative thereof.
HEK293T cells (purchased from ATCC) were seeded in a 6-well plate (coming Co.) at an appropriate density (about 0.5-2×10^5/well). When the cell density reached above 30%, the plasmid PLVXK-mGPR39-P2A-mCherry was transfected with Lipofectamine 3000 (Invitrogen) at a concentration of 2 μg per well. The cells were passaged 24 hours after transfection, the puromycin (gibco) was added into the medium at a concentration of 2 μg/mL for antibiotic screening of cells. After 2-4 days of continuous screening, the cells screened for puromycin resistance were trypsinized and screened by flow cytometry for monoclones with red fluorescence. And these monoclones were seeded in a 96-well plate and cultured in a medium without puromycin for around 10 days. Cell colonies with red fluorescence were sorted under a fluorescence microscope, trypsinized and then passaged and expanded in a 6-well plate. Cell lines m39-20 stably expressing murine-derived GPR39 were obtained through the above methods.
Calcium dye Fluo8-AM (ATT bioquest Co.) was dissolved in DMSO solvent to formulate a stock solution of 1 μg/μL. […] After then, the calcium dye working solution was replaced with the 4K solution (50 μL per well), and acclimated for 5 min at room temperature for the subsequent calcium imaging experiment.
as §1, with “The drug solution and the cell samples in Example 2.2 were placed into the designated position of the FLIPR instrument (MolecularDevices Co.) respectively.” left out
After that, the calcium dye working solution was replaced with a 4K solution containing 4 μM zinc ions (50 μL per well), followed by acclimation for 5 min at room temperature.
For orientation: Calcium assays in cells follow changes in intracellular calcium, usually with a dye or a luminescent sensor.

Test [2] has as its target T2, human GPR39 receptors on human GPR39-2 cell lines (Homo sapiens, UniProt O43194).
T2 construct: P2A-mCherry (C)
T2 sequence (O43194 1-453): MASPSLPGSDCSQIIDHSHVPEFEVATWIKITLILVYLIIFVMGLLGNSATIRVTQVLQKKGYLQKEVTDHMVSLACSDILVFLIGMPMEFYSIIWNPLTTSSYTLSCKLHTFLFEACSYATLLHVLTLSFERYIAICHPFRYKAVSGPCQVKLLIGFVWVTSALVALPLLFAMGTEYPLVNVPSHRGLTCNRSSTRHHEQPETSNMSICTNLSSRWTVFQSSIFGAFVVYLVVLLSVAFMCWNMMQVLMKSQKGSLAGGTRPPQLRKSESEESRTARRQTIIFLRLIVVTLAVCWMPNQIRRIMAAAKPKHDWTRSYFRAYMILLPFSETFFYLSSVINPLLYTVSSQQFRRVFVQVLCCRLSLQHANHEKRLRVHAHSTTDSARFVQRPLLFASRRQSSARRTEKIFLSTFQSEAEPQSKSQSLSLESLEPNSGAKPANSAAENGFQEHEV
Description: FLIPR calcium imaging on human GPR39-2 cell line stably expressing human GPR39. The conditions noted are these: for intracellular calcium signal response of human GPR39-2: FIG. 9; for EC50: human GPR39-2 cells. An excerpt:
The human GPR39 cDNA vector was purchased from WZ Biosciences Inc., Shandong. It was cloned onto a lentiviral vector PLVXK-hGPR39-P2A-mCherry (FIG. 10) through PCR amplification using primers hGPR39-F (which sequence was shown as set forth in SEQshown as set forth in SEQ ID NO: 15) and hGPR39-R (which sequence was shown as set forth in SEQ shown as set forth in SEQ ID NO: 16), in which the sequence of the target gene human GPR39 cDNA was shown as set forth in SEQ shown as set forth in SEQ ID NO: 14. A cell line human GPR39-2 stably expressing human GPR39 gene was constructed according to the method of Example 1.

[3] abbreviates: Bile acid + 4 μM zinc ions EC50, m39-20 cells, 4 μM zinc ions.
Where [4] appears, read: m39-20 cells, no zinc ions, read-out: Only bile acid EC50.

Like-named read-outs stand apart in the source and are kept apart here.

The term EC50 denotes the concentration giving half of the maximal effect. In the case of `C[C@H](CCC(=O)O)[C@H]1CC[C@H]2[C@@H]3[C@H](O)C[C@@H]4C[C@H](O)CC[C@]4(C)[C@H]3CC[C@]12C` [CDCA, Chenodeoxycholic acid], the “calcium signals on HEK293T cells not expressing GPR39” value in the test with HEK293T cells is listed as “may induce observable calcium signals”. In test [1] (setting [3]), the EC50 was found to be 75.1 ± 7.6 µM. Moreover, in test [1] (m39-20 cells, 4 μM zinc ions), the “Bile acid + 4 μM zinc ions Efficacy” value is 85 ± 5.2% and the “activation of GPR39 receptors in the presence of zinc ions” value is listed as “capable of activating GPR39 receptors”. Besides, the “Only bile acid Efficacy” value in test [1] (m39-20 cells, no zinc ions) is listed as 0%. For the same compound, the EC50 in test [1] (setting [4]) was more than 200 µM.

Consider `C[C@H](CCC(=O)O)[C@H]1CC[C@H]2[C@@H]3CC[C@@H]4C[C@H](O)CC[C@]4(C)[C@H]3C[C@H](O)[C@]12C` [DCA, Deoxycholic acid], for which the “calcium signals on HEK293T cells not expressing GPR39” value with HEK293T cells was “may induce observable calcium signals”. Also, the EC50 in test [1] (setting [3]) turned out to be 58.4 ± 10 µM. For the same compound, in test [1] (m39-20 cells, 4 μM zinc ions), the “Bile acid + 4 μM zinc ions Efficacy” value was 93.1 ± 1.4% and the “activation of GPR39 receptors in the presence of zinc ions” value is “capable of activating GPR39 receptors”. Moreover, in test [1] (m39-20 cells, no zinc ions), the “Only bile acid Efficacy” value worked out at 0%. The half-maximal effective concentration (EC50) in test [1] (setting [4]) was more than 200 µM.

For the compound `C[C@H](CCC(=O)NCC(=O)O)[C@H]1CC[C@H]2[C@@H]3CC[C@@H]4C[C@H](OS(=O)(=O)O)CC[C@]4(C)[C@H]3CC[C@]12C` [GLCAS], in test [2], the “intracellular calcium signal response of human GPR39-2” value was “capable of inducing intracellular calcium signal response”. In addition, the EC50 in test [1] (setting [3]) worked out at 8 ± 1.8 µM. Also, in test [1], the “intracellular calcium signals in m39-20 cell lines” value (“intracellular calcium signals” for short) is recorded as “varying extents of intracellular calcium signals” and the “intracellular calcium signaling response in m39-20 cells” value is “strong intracellular calcium signaling response”. The “Bile acid + 4 μM zinc ions Efficacy” value in test [1] (m39-20 cells, 4 μM zinc ions) came to 110.8 ± 4.1%. Also, the “Only bile acid Efficacy” value in test [1] (m39-20 cells, no zinc ions) is 98.8 ± 4.6%. Besides, in test [1] (m39-20 cells), the “change of activation efficacy after the addition of zinc ions” value (from here on “change of activation efficacy”) is listed as “increases slightly” and the “activation capacity on GPR39 receptors among the bile acids” value is on record as “strongest activation capacity”. For the same compound, the EC50 in test [1] (setting [4]) worked out at 47.9 ± 9.4 µM.

Turning to `C[C@H](CCC(=O)NCCS(=O)(=O)[O-])[C@H]1CC[C@H]2[C@@H]3CC[C@@H]4C[C@H](OS(=O)(=O)[O-])CC[C@]4(C)[C@H]3CC[C@]12C.[Na+].[Na+]` [TLCAS], the “intracellular calcium signal response of human GPR39-2” value in test [2] is listed as “capable of inducing intracellular calcium signal response”. Moreover, the EC50 in test [2] (no added zinc ions, read-out: EC50 Only agonist) was determined as 69.4 ± 5 µM. Moreover, in test [2] (read-out: EC50 Agonist + 4 μM zinc ions, 4 μM zinc ions), the concentration for a half-maximal effect (EC50) is 9.6 ± 6.3 µM. In addition, in test [1], the “intracellular calcium signals” value is “varying extents of intracellular calcium signals” and the “intracellular calcium signaling response in m39-20 cells” value is “strong intracellular calcium signaling response”. For the same compound, in test [1] (m39-20 cells), the “change of activation efficacy” value is given as “increases slightly” and the “activation capacity on GPR39 receptors among the bile acids” value is “strongest activation capacity”.

`CCCCCCCCC=CCCCCCCCC(=O)OCC(CO)OC(=O)CCCCCCCC=CCCCCCCCC` (stereo not shown) [TM-N 1324, reference compound]: the concentration giving a half-maximal response (EC50) in test [1] (m39-20 cells, no zinc ions, read-out: EC50 Only agonist) was determined as 42.9 µM; in test [1] (read-out: EC50 Agonist + 4 μM zinc ions, m39-20 cells, 4 μM zinc ions), 3.5 µM.

For `C[C@H](CCC(=O)NCCS(=O)(=O)O)[C@H]1CC[C@H]2[C@@H]3[C@@H](O)C[C@@H]4C[C@H](OS(=O)(=O)O)CC[C@]4(C)[C@H]3CC[C@]12C` [TUDCAS], the EC50 in test [1] (setting [3]) is more than 100 µM; in test [1] (setting [4]), more than 200 µM. The “intracellular calcium signals” value in test [1] was “varying extents of intracellular calcium signals”. The “Bile acid + 4 μM zinc ions Efficacy” value in test [1] (m39-20 cells, 4 μM zinc ions) was determined as 31.4 ± 3.2%. Moreover, the “Only bile acid Efficacy” value in test [1] (m39-20 cells, no zinc ions) is on record as 0%. Besides, in test [1] (m39-20 cells), the “change of activation efficacy” value was “obviously improved”.

As for `C[C@H](CCC(=O)O)[C@H]1CC[C@H]2[C@@H]3[C@@H](O)C[C@@H]4C[C@H](O)CC[C@]4(C)[C@H]3CC[C@]12C` [UDCA, Ursodeoxycholic acid], the 50% effective concentration (EC50) is more than 100 µM in test [1] (setting [3]) and more than 200 µM in test [1] (setting [4]). In addition, in test [1] (m39-20 cells, 4 μM zinc ions), the “Bile acid + 4 μM zinc ions Efficacy” value was 58.5 ± 4%. Besides, the “Only bile acid Efficacy” value in test [1] (m39-20 cells, no zinc ions) is recorded as 0%.

For the compound `C[C@H](CCC(=O)O)[C@H]1CC[C@H]2[C@@H]3[C@@H](O)C[C@@H]4C[C@H](OS(=O)(=O)O)CC[C@]4(C)[C@H]3CC[C@]12C` [UDCAS], the half-maximal effective concentration (EC50) in test [1] (setting [3]) was 68.6 ± 16.3 µM; in test [1] (setting [4]) it was more than 200 µM. Moreover, in test [1], the “intracellular calcium signals” value is “varying extents of intracellular calcium signals”. Also, the “Bile acid + 4 μM zinc ions Efficacy” value in test [1] (m39-20 cells, 4 μM zinc ions) was 84.7 ± 2.4%. For the same compound, in test [1] (m39-20 cells, no zinc ions), the “Only bile acid Efficacy” value came to 0%. The “change of activation efficacy” value in test [1] (m39-20 cells) is given as “obviously improved”.
